The source of these data is ChEMBL document CHEMBL5331046, “Disulfiram and dithiocarbamate analogues demonstrate promising antischistosomal effects” (Eur J Med Chem, 2022).

The structures appear in SMILES notation. Activity calls are given as the source filed them. The calls are words filed in the database; no cut-off is given here.

In data set [1] the test system is Schistosoma mansoni. Briefly: Antischistosomal activity against Schistosoma mansoni couples assessed as pairing instability at 100 uM measured upto 72 hrs by bright field microscopy. In kind it is functional.
In data set [2] the test system is Schistosoma mansoni. The experiment in a line: Antischistosomal activity against Schistosoma mansoni couples assessed as decrease in pairing stability at 5 uM measured upto 72 hrs by bright field microscopy. The format is functional. Also noted: scale not given: the % may be the effect or the level left.
Data set [3] has as its system Schistosoma mansoni. The experiment in a line: Antischistosomal activity against Schistosoma mansoni couples assessed as inhibition of eggs production at 100 uM measured upto 72 hrs by bright field microscopy. In kind it is functional. Also noted: scale not given: the % may be the effect or the level left.
The test system of data set [4] is HepG2. Briefly: Cytotoxicity against human HepG2 cells assessed as reduction in cell viability upto 50 uM by WST-1 assay. Particulars: hepg2, 50 µM. The format is toxicity, cell-based. For orientation: Tetrazolium dyes change colour on reduction, which living cells bring about.
For data set [5], the system named is Schistosoma mansoni. Briefly: Antischistosomal activity against Schistosoma mansoni couples at 5 uM measured upto 72 hrs by bright field microscopy. The format is functional, organism-based.
Data set [6] deals with LS174T. Briefly: Cytotoxicity against human LS174T cells assessed as reduction in cell vaibility upto 50 uM by WST-1 assay. The format is toxicity, cell-based.
The subject of data set [7] is LS174T. The experiment in a line: Cytotoxicity against human LS174T cells assessed as reduction in cell viability at 100 uM by WST-1 assay. In kind it is toxicity, cell-based.
Data set [8] relates to HepG2. The experiment in a line: Cytotoxicity against human HepG2 cells assessed as reduction in cell vaibility at 100 uM by WST-1 assay. In kind it is toxicity, cell-based. The following applies: hepg2, 100 µM.
Data set [9] deals with Schistosoma mansoni. The experiment in a line: Antischistosomal activity against Schistosoma mansoni couples assessed as couple separation at 100 uM measured upto 72 hrs by bright field microscopy. The format is functional, organism-based.
Data set [10] relates to Schistosoma mansoni. The experiment in a line: Antischistosomal activity against Schistosoma mansoni couples assessed as decrease in parasite vitality at <=25 uM measured upto 72 hrs by bright field microscopy. The format is functional, organism-based.
In data set [11] the test system is Schistosoma mansoni. Briefly: Antischistosomal activity against Schistosoma mansoni male worm assessed as tegument damage at 100 uM measured upto 72 hrs by bright field microscopy. The format is functional, organism-based.
For data set [12], the system named is Schistosoma mansoni. The experiment in a line: Antischistosomal activity against Schistosoma mansoni female worm assessed as tegument damage at 100 uM measured upto 72 hrs by bright field microscopy. In kind it is functional, organism-based.
Data set [13] deals with Schistosoma mansoni. Briefly: Antischistosomal activity against Schistosoma mansoni couples assessed as lethality to parasites at 50 uM measured upto 72 hrs by bright field microscopy. The format is functional, organism-based.
The test system of data set [14] is Schistosoma mansoni. Briefly: Antischistosomal activity against Schistosoma mansoni couples assessed as decrease in parasite motility at 25 uM measured upto 72 hrs by bright field microscopy. The format is functional. Also noted: scale not given: the % may be the effect or the level left.
Data set [15] relates to Schistosoma mansoni. Briefly: Antischistosomal activity against Schistosoma mansoni female worm assessed as gut dilatations at 10 uM measured upto 72 hrs by bright field microscopy. The format is functional, organism-based.
Data set [16] concerns Schistosoma mansoni. Briefly: Antischistosomal activity against Schistosoma mansoni female worm assessed as gut dilatations at 100 uM measured upto 72 hrs by bright field microscopy. The format is functional, organism-based.
Data set [17] deals with Schistosoma mansoni. The experiment in a line: Antischistosomal activity against Schistosoma mansoni couples assessed as inhibition of eggs production at <=25 uM measured upto 72 hrs by bright field microscopy. In kind it is functional, organism-based.
For data set [18], the system named is Schistosoma mansoni. Briefly: Antischistosomal activity against Schistosoma mansoni couples assessed as tegument damage at 100 uM measured upto 72 hrs by bright field microscopy. In kind it is functional, organism-based.
In data set [19] the test system is Schistosoma mansoni. Briefly: Antischistosomal activity against Schistosoma mansoni couples at 50 uM measured upto 72 hrs by bright field microscopy. The format is functional, organism-based.
Data set [20] has as its system Schistosoma mansoni. The experiment in a line: Antischistosomal activity against Schistosoma mansoni couples assessed as decrease in parasite motility at 100 uM measured upto 72 hrs by bright field microscopy. In kind it is functional. Also on record: scale not given: the % may be the effect or the level left.
Data set [21] has as its system Schistosoma mansoni. Briefly: Antischistosomal activity against Schistosoma mansoni couples at 25 uM measured upto 72 hrs by bright field microscopy. In kind it is functional, organism-based.
For data set [22], the system named is LS174T. Briefly: Cytotoxicity against human LS174T cells assessed as reduction in cell vaibility upto 100 uM by WST-1 assay. The format is toxicity, cell-based.
Data set [23] deals with Schistosoma mansoni. The experiment in a line: Antischistosomal activity against Schistosoma mansoni couples assessed as decrease in parasite vitality at 10 uM measured upto 72 hrs by bright field microscopy. The format is functional. Also on record: scale not given: the % may be the effect or the level left.
For data set [24], the system named is Schistosoma mansoni. The experiment in a line: Antischistosomal activity against Schistosoma mansoni couples assessed as couple separation at 10 uM measured upto 72 hrs by bright field microscopy. The format is functional.
The subject of data set [25] is HepG2. Briefly: Cytotoxicity against human HepG2 cells assessed as reduction in cell viability upto 100 uM by WST-1 assay. In kind it is toxicity, cell-based. Particulars: hepg2, 100 µM.

Regarding `CCN(CC)C(=S)SCCN1CCCCC1`, the Activity in the data set with Schistosoma mansoni [1] is on record as 100%; in the data set with Schistosoma mansoni [2], 100%; with Schistosoma mansoni [3], above 80%.
For `CCN(CC)C(=S)SCc1cc(=O)oc2cc(OC)ccc12`, the Activity entry in the data set on HepG2 [4] and in the data set with LS174T [6] was “Non-Toxic” each time. In addition, in the data set with Schistosoma mansoni [5], the outcome was Active.
As to `S=C(SCc1ccccc1)n1ccc2ccccc21`, the Activity result in the data set with LS174T [7] is reported as “Non-Toxic”; in the data set on HepG2 [8], “Non-Toxic”; in the data set on Schistosoma mansoni [14], “>=55%”. The result in the data set on Schistosoma mansoni [9], in the data set on Schistosoma mansoni [10], in the data set with Schistosoma mansoni [11], in the data set with Schistosoma mansoni [12], in the data set with Schistosoma mansoni [13] and with Schistosoma mansoni [16] was Active. In the data set with Schistosoma mansoni [17], the outcome was Active. Moreover, in the data set with Schistosoma mansoni [15], the result was inactive.
`CCN(CC)C(=S)SCc1ccc(S(C)(=O)=O)cc1`: the result with Schistosoma mansoni [18] and with Schistosoma mansoni [19] was Active. Further, the Activity with Schistosoma mansoni [20] is around 60%. Further, in the data set with Schistosoma mansoni [21], the outcome was inactive.
For the compound `CCN(CC)C(=S)SCC1CCCCC1`, the Activity entry in the data set with LS174T [22] was “Non-Toxic”; with Schistosoma mansoni [23], 90%; with Schistosoma mansoni [24] it was 60%; in the data set with HepG2 [25] it was “Non-Toxic”; in the data set with Schistosoma mansoni [14] it was 35%.
